≈ marks a conversion by molar mass, not a printed value. Where two headings read alike, the source gives them in different places. Non-standard residues stand in square brackets, D forms with d. Residues, ends and D or L forms follow the SMILES beside them. Dab = NCC[C@H](N)C(=O)O
How the values were obtained:
[1] = test system: Pseudomonas aeruginosa P1021903; assay type: cell-based
Procedure, shortened: (§1)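 Inoculum standardised to 0.5 McFarland (approx. 10^6 CFU/ml) in Mueller-Hinton + 0.02% BSA was combined equally with serially halved peptide concentrations in the same medium, per a modified NCCLS microdilution procedure.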

[2] = test system: Pseudomonas aeruginosa IMP 1 Livermore 3140; assay type: cell-based
Procedure, shortened: as §1

[3] = test system: Pseudomonas aeruginosa P1021913; assay type: cell-based
Procedure, shortened: as §1

[4] = test system: Pseudomonas aeruginosa P8191900; assay type: cell-based
Procedure, shortened: as §1

[5] = test system: P. aeruginosa ATCC 27853; assay type: cell-based, Pseudomonas aeruginosa
Procedure, shortened: as §1

[6] = test system: Pseudomonas aeruginosa (ATCC 27853); assay: In vivo septicemia assay; design: species or system CD-1 mice; details: groups of 6 mice
Protocol: Groups of 6 CD-1 (Crl.) derived male mice weighing 24±2 g were used. The mice were each inoculated intravenously (IV) with an LD90-100 of Pseudomonas aeruginosa (ATCC 27853) (9×10^6 CFU/0.5 ml/mouse) in brain heart infusion broth without 5% mucin. Compound at doses of 5, 2.5, 1, 0.5, 0.25 and 0.1 mg/kg, vehicle (0.9% NaCl, 10 ml/kg) was administered subcutaneously (SC) to test animals at 1 hour after bacterial inoculation. Also, an additional group was treated twice with compound at a dose of 5 mg/kg at 1 and 6 hours after bacterial inoculation. Mortality was recorded once daily for 7 days following the bacterial inoculation and an increase of survival of the animals by 50 percent or more (^3 50%) after the bacterial inoculation, relative to vehicle control, indicates significant antimicrobial effect. The MED (ED50) was determined by nonlinear regression using Graph-Pad Prism (Graph Pad Software, USA).
Septicaemia experiment in mice: LD90-100 of Pseudomonas aeruginosa (ATCC 27853) (9×10^6 CFU/0.5 ml/mouse IV and after 1 h Ex. 1 s.c.
Septicaemia experiment in mice: LD90-100 of Pseudomonas aeruginosa (ATCC 27853) (9×10^6 CFU/0.5 ml/mouse IV), and after 1 and 5 h Ex. 40 s.c.
Septicaemia experiment in mice: LD90-100 of Pseudomonas aeruginosa (ATCC 27853) (9×10^6 CFU/0.5 ml/mouse IV), and after 1 and 5 h Ex. 50 s.c.

[7] = test system: P. aeruginosa
[8] = test system: HELA cells (Acc57); assay: Cytotoxicity assay, MTT reduction (LC 50, GI 50); assay type: cell-based
Procedure, shortened: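 HeLa cells seeded at 7.0×10^3 cells/well, grown 24 h, then exposed to peptides at 12.5, 25 and 50 μM in triplicate for 48 h at 37 °C; MTT (0.5 mg/ml, 2 h), A595 read. Percent growth was taken relative to time-zero plates; LC50 and GI50 were interpolated by linear trend at −50% and 50% growth.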

[9] = test system: human red blood cells (hRBC); assay: Hemolysis; assay type: cell-based
[10] = Plasma stability, rat plasma; assay type: in vitro ADME
[11] = Plasma stability, human plasma; assay type: in vitro ADME
[12] = average over the five P. aeruginosa strains, Mueller-Hinton broth

Molecule	MIC P. aeruginosa P1021903 ([1]; Mueller-Hinton broth) [µg/mL]	MIC P. aeruginosa IMP1 Livermore 3140 ([2]; Mueller-Hinton broth) [µg/mL]	MIC P. aeruginosa P1021913 ([3]; Mueller-Hinton broth) [µg/mL]	MIC P. aeruginosa P8191900 ([4]; Mueller-Hinton broth) [µg/mL]	MIC P. aeruginosa ATCC 27853 ([5]; Mueller-Hinton broth) [µg/mL]	Dead ([6]; 2 × 1 mg/kg, after 1 and 5 h)	Survivors ([6]; 2 × 1 mg/kg, after 1 and 5 h)	Average MIC [7, 12] [µg/mL]	Cytotoxicity GI50 Hela cells [8] [µM]	Stability rat Plasma t1/2 [10] [h]	Stability human Plasma t1/2 [11] [h]	other results
Example 50: backbone-cyclized; P1-P12 Glu-Trp-Ile-Gln-Lys-Dab-Dab-Ser-Dab-Dab-Ala-Ser; template DPro-LPro; SEQ ID NO: 50 (cyclo(EWIQK[Dab][Dab]S[Dab][Dab]AS[dP]P); SMILES CC[C@H](C)[C@@H]1NC(=O)[C@H](Cc2c[nH]c3ccccc23)NC(=O)[C@H](CCC(=O)O)NC(=O)[C@@H]2CCCN2C(=O)[C@H]2CCCN2C(=O)[C@H](CO)NC(=O)[C@H](C)NC(=O)[C@H](CCN)NC(=O)[C@H](CCN)NC(=O)[C@H](CO)NC(=O)[C@H](CCN)NC(=O)[C@H](CCN)NC(=O)[C@H](CCCCN)NC(=O)[C@H](CCC(N)=O)NC1=O)	0.06	2.00	0.50	0.13	0.09	5	1	0.56	50			Dead ([6]; 2 × 0.1 mg/kg, after 1 and 5 h): 6; Survivors ([6]; 2 × 0.1 mg/kg, after 1 and 5 h): 0; Dead ([6]; 2 × 0.3 mg/kg, after 1 and 5 h): 6; Survivors ([6]; 2 × 0.3 mg/kg, after 1 and 5 h): 0; Dead ([6]; 2 × 3 mg/kg, after 1 and 5 h): 3; Survivors ([6]; 2 × 3 mg/kg, after 1 and 5 h): 3; Dead ([6]; 2 × 10 mg/kg, after 1 and 5 h): 0; Survivors ([6]; 2 × 10 mg/kg, after 1 and 5 h): 6
Gentamycin [reference compound]						1	5					Dead ([6]; 1 mg/kg, 1 h after inoculation): 0; Survivors ([6]; 1 mg/kg, 1 h after inoculation): 6
CC[C@H](C)[C@@H]1NC(=O)[C@H](Cc2c[nH]c3ccccc23)NC(=O)[C@H]([C@@H](C)O)NC(=O)[C@@H]2CCCN2C(=O)[C@H]2CCCN2C(=O)[C@H](CCN)NC(=O)[C@H](C)NC(=O)[C@H](CCN)NC(=O)[C@H](CCN)NC(=O)[C@H](Cc2c[nH]c3ccccc23)NC(=O)[C@H](CCN)NC(=O)[C@H](CCN)NC(=O)[C@H](CCCCN)NC(=O)[C@H](CCCCN)NC1=O [Example 24] (cyclo(TWIKK[Dab][Dab]W[Dab][Dab]A[Dab][dP]P))	0.08 (≈ 0.0497 µM)	0.24 (≈ 0.149 µM)	0.16 (≈ 0.0994 µM)	0.16 (≈ 0.0994 µM)	0.05 (≈ 0.0311 µM)			0.14		5	5	Hemolysis at 100 μg/ml ([9]; 100 μg/ml of peptide): 0.1%
CC[C@H](C)[C@@H]1NC(=O)[C@H](Cc2c[nH]c3ccccc23)NC(=O)[C@H](C)NC(=O)[C@@H]2CCCN2C(=O)[C@H]2CCCN2C(=O)[C@H](CCN)NC(=O)[C@H](C)NC(=O)[C@H](CCN)NC(=O)[C@H](CCN)NC(=O)[C@H](Cc2c[nH]c3ccccc23)NC(=O)[C@H](CCN)NC(=O)[C@H](CCN)NC(=O)[C@H](CCCCN)NC(=O)[C@H](CCN)NC1=O [Example 22] (cyclo(AWI[Dab]K[Dab][Dab]W[Dab][Dab]A[Dab][dP]P))									50	5	5	Hemolysis at 100 μg/ml [9]; 100: 0.2%; MIC P. aeruginosa P1021903 ([1]; P1021903): 0.09 µg/mL (≈ 0.058 µM); MIC P. aeruginosa IMP1 Livermore 3140 ([2]; IMP 1 Livermore 3140): 0.24 µg/mL (≈ 0.155 µM); MIC P. aeruginosa P1021913 ([3]; P1021913): 0.16 µg/mL (≈ 0.103 µM); MIC P. aeruginosa P8191900 ([4]; P8191900): 0.09 µg/mL (≈ 0.058 µM); MIC P. aeruginosa ATCC 27853 ([5]; ATCC 27853): 0.02 µg/mL (≈ 0.0129 µM); Average MIC [7]: 0.12 µg/mL
